Experimental data as given in patent US9980979B2, “Compounds and methods for enhancing erythropoiesis” (NATIONAL YANG-MING UNIVERSITY, priority 2008, dated 2018).

Assays:
erythropoietin (Epo) [1] = experiment: Epo expression in isolated hepatocytes (RT-PCR); type: cell-based, mouse; conditions: 0.1-12.5 μg/ml, 24 hours; FIG. 4
Method: C57BL/6JNarl mice, 8-10 weeks of age, were purchased from the National Laboratory Animal Center (NLAC, Taiwan). The hepatocytes were isolated as previously described with modifications (Kreamer et al., 1986). Briefly, mice were anaesthetized with Avertin (2% (w/v) 2,2,2-tribromoethanol, i.p., 300 mg/Kg body weight) and the liver was perfused in situ through portal vein with a calcium-free Hank's balanced salt solution (HBSS) containing 0.5 mM Ethylene glycol-bis(2-aminoethylether)-N,N,N′,N′-tetraacetic acid (EGTA; Sigma-Aldrich). […] After 10 min of perfusion, HBSS containing 0.05% (w/v) collagenase (Type II; Worthington Biochemical Corporation) and 1 mM calcium chloride (Sigma-Aldrich) was introduced into the perfusion apparatus. The perfusion was continued for another 10 min at the same flow rate. The partially digested liver was removed, placed in a 60-mm culture dish (BD Falcon) containing HBSS, and gently minced to open the liver capsula. […]
The isolated hepatocytes were plated in 6-well plates (Costar) at approximately 6×10^5 cells/well in DMEM medium (Gibco/Invitrogen) containing 10% FBS (Gibco) in a humidified 37° C. incubator containing 5% CO2-95% air. […] The RNA of hepatocyte was extracted by RNA-Bee™ RNA isolation solvent (Tel-test) for reverse transcription, and the transcripts analyzed by PCR as previously described.

[2] = tested on: cisplatin-induced acute renal failure animal model; experiment: cisplatin-induced acute renal failure animal model: red blood cell count and blood urea nitrogen; type: in vivo, C57BL/6JNarl mice
Method: The effects of Compound A treatment on cisplatin-induced acute renal failure animal model were investigated. C57BL/6JNarl mice (8-week-old) were purchased from the National Laboratory Animal Center (NLAC, Taiwan). Cisplatin (Sigma-Aldrich) was dissolved in normal saline (0.9% (w/v) sodium chloride, Sigma-Aldrich) at a concentration of 1 mg/ml, and injected into mice intraperitoneally (i.p.) according to the following schedule: day 1, 7 mg/kg; day 5, 6 mg/kg; and day 9, 6 mg/kg. For cisplatin-untreated normal mice group, normal saline injections of corresponding volumes were given i.p. in parallel. At day 13, serum samples were collected and blood urea nitrogen (BUN) contents were assayed. Cisplatin-injected mice with BUN levels more than 100 mg/dl and the cisplatin-untreated normal mice were further divided into 5 groups, 6 mice per group, for feeding with Compound A for 2 weeks: (1) Normal group: Mice were injected with normal saline and followed by feeding with a standard diet; (2) Control group: Mice were injected with cisplatin and followed by feeding with a standard diet; (3) Pomu 10 mg/kg/day group: Mice were injected with cisplatin and followed by feeding with Compound A at the dose of 10 mg/kg/day; (4) Pomu 30 mg/kg/day group: Mice were injected with cisplatin and followed by Compound A at the dose of 30 mg/kg/day; (5) Pomu 90 mg/kg/day group: Mice were injected with cisplatin and followed by Compound A treatment at the dose of 90 mg/kg/day. Blood samples were collected from the retro-orbital sinus of mice at day 0, 5, 10, 13, 18, 23 and 28. Red blood cell (RBC) concentrations were determined by complete blood cell count using Sysmex® Kx-21 hematology analyzer. Blood urea nitrogen (BUN) levels were determined by urease GLDH method (Urea FS, DiaSys). Results were expressed as mean±S.E. (n=5˜6). Statistical significance was evaluated by Student's t test (##P<0.01 versus normal group and **P<0.01 versus control group). […] The horizontal arrow in FIGS. 7 and 8 represents Compound A treatment (mg/Kg/day). […] The results were in agreement with the ability of the Compound A in enhancing erythropoiesis.

erythropoietin (Epo) [3] = experiment: liver expression of Epo in cisplatin-induced acute renal failure animal model (PCR); type: in vivo, mouse; conditions: 30~90 mg/kg/day, day 28, versus untreated control group; FIG. 9
Method: The effects of Compound A treatment on cisplatin-induced acute renal failure animal model were investigated. C57BL/6JNarl mice (8-week-old) were purchased from the National Laboratory Animal Center (NLAC, Taiwan). Cisplatin (Sigma-Aldrich) was dissolved in normal saline (0.9% (w/v) sodium chloride, Sigma-Aldrich) at a concentration of 1 mg/ml, and injected into mice intraperitoneally (i.p.) according to the following schedule: day 1, 7 mg/kg; day 5, 6 mg/kg; and day 9, 6 mg/kg. For cisplatin-untreated normal mice group, normal saline injections of corresponding volumes were given i.p. in parallel. At day 13, serum samples were collected and blood urea nitrogen (BUN) contents were assayed. […]
At the end of the experiments described in EXAMPLE 6 (i.e., day 28), mice were sacrificed, kidney and liver tissues were removed, and bone marrow cells were isolated. […] The reverse-transcribed cDNA samples were analyzed by PCR using ABI GeneAmp™ system 2700 (Applied Biosystems) and the SYBR Green Master Mix kit (Applied Biosystems) using primers targeting toward mouse glyceraldehyde 3-phosphate dehydrogenase (GAPDH) (SEQ ID NOs: 5 and 6), erythropoietin (Epo) (SEQ ID NOs: 3 and 4) and hepatocyte growth factor (HGF) (SEQ ID NOs: 7 and 8) (Table 1). Results were expressed as relative index±S.E. (n=5˜6). […]

SMILES: OC[C@H]1O[C@@H](Oc2c(O)cc(O)cc2/C=C/c2ccc(O)cc2)[C@H](O)[C@@H](O)[C@@H]1O [Compound A, 2,3,5,4′-tetrahydroxystilbene 2-O-β-D-glucopyranoside]
- expression of Epo in hepatocytes (erythropoietin (Epo) [1]): enhanced the expression of Epo in hepatocytes
- number of red blood cells (RBCs) ([2]; 30~90 mg/kg/day in feed for 2 weeks, time course, FIG. 5): increased the number of red blood cells
- serum BUN levels ([2]; 30~90 mg/kg/day in feed for 2 weeks, time course, FIG. 6): decreased serum BUN levels
- number of RBCs at day 23 ([2]; 30~90 mg/kg/day, day 23, versus control group, FIG. 7): significantly increased the number of RBCs
- serum BUN levels at day 23 ([2]; 30~90 mg/kg/day, day 23, versus control group, FIG. 8): decreasing serum BUN levels
- expression of Epo in liver (relative index) (erythropoietin (Epo) [3]): significantly increased the expression of Epo in liver
